# Measurements taken from US20240390356A1, “HALOPERIDOL FOR USE IN THE TREATMENT OF SPINAL MUSCULAR ATROPHY” (UNIVERSITAT DE VALÈNCIA, priority 2021, published 2024).
# Where “and” joins values, the source holds several entries; their conditions need not be identical. Equal entries are not always repeated.
# Assays:
# SMN protein = SMN protein levels by Western blotting in fibroblasts derived from SMA type II patients; assay type: cell-based, human; settings: 72 h, compared to 0.5% DMSO, single samples
# Description: (§1) Fibroblasts derived from SMA patients (GM03813; Coriell Cell Repositories) were grown at 37° C. in cell culture bottles with Dulbecco's Modified Eagle Medium (DMEM; Gibco) and […] glucose. The medium was supplemented with penicillin (100 U/ml) and streptomycin ([…]) [1% P/S; Gibco] and 10% inactivated fetal bovine serum (FBS; Gibco).
# (§2) For RNA extraction 400,000 GM03813 fibroblasts were seeded in 60 mm culture dishes in 4 ml of supplemented DMEM medium. The following day the medium was changed, and the candidate compound was added at its maximum non-toxic concentration. The cells were incubated for 48 hours and then washed with 1× PBS and collected in sterile 1.5 ml tubes. The same was done for the evaluation of the effect of haloperidol on the level of SMN protein (example 2) with the difference that 1,000,000 fibroblasts were used in a 100 mm cell culture plate and that the cells were collected after […] with a RIPA protein extraction buffer supplemented with a protease inhibitor cocktail (cOmplete; Roche).
# Fibroblasts derived from SMA type Il patients were incubated with haloperidol at three concentrations for 72 h. 10 μg of protein extracted from cells treated with haloperidol were separated by electrophoresis with acrylamide/bis-acrylamide gels SDS-PAGE with the Mini-protean Electrophoresis System (Bio-Rad). After electrophoresis was carried out, the proteins were transferred to a nitrocellulose membrane (GE Healthcare) using a semi-dry electro-transfer system (Bio-Rad) for one hour with a constant voltage of 15 V. The membranes were incubated with a blocking solution (5% skim milk in PBST, 1× PBS, 0.1% Tween 20) for at least 1 h at room temperature. […]
# Chemiluminescence was detected using SuperSignal West Pico Sensitivity Substrate (Pierce) and acquired with ImageQuant LAS 4000 (GE Healthcare). […] Statistical significance was calculated using the Student's t-test (* p<0.05, ** p<0.01, *** p<0.001).
# [1] = test system: co-culture of SMA type I motoneurons and SMA type I myoblasts; assay: Motoneurons and myoblasts co-culture (MN survival, myotube area); assay type: cell-based, human; settings: treatment every 3 days for 7 days, versus non-treated controls
# Description: SMA type I (SMA) or healthy motoneurons (MN) derived from induced pluripotent stem cells were co-cultured with SMA type I or healthy myoblasts differentiated into myotubes. […] (B) Analysis of SMA myotubes area compared to the same controls as above. […] Myotubes were marked using MF20 marker (dark green), MNs were marked with ISL1 (red), acetylcholine receptors were marked with AChR (light green) and cell nuclei were stained with Hoechst (blue).
# Primary cells were isolated from skeletal muscle as described previously (Chaouch et al. 2009). These cells were expanded and differentiated as previously described. Briefly, primary and immortalized myoblasts were expanded in a mix of 199 medium/Dulbecco modified Eagles minimal essential medium (1:4 ratio) supplemented with 20% fetal bovine serum (FBS), 25 μg/mL fetuin, 0.5 ng/ml basic fibroblast growth factor, 5 ng/ml epidermal growth factor, 5 μg/mL insulin. Cells were then cultivated in a growth medium consisting of DMEM-F12 glutamax (Life Technologies) supplemented with 20% FBS (Sigma-Aldrich) and 0.1% penicillin/steptomycin (Life Technologies). Myogenic differentiation was induced by switching growth medium to DMEM supplemented with 2% horse serum (Life Technologies).
# For co-culture, spinal MNs must be differentiated from hiPSC as described previously, but the embryoid bodies are dissociated at day 14 of differentiation and frozen. […]
# delta 7 SMA mice [2] = assay: NMJ innervation of quadriceps muscles in delta 7 SMA mice; assay type: in vivo; settings: mean ± SEM, sham 33.75±1.31%
# SMA Δ7 mice = assay: Body weight and behavioral motor tests in SMA Δ7 mice; assay type: in vivo
# Description: FIG. 4. Effect of Haloperidol treatment on weight and motor performances of SMN Δ7 mice. […] VHL (vehicle, 0.9% saline solution with 2% DMSO) n=8, HALO (haloperidol) n=5. Results are expressed as mean±SEM (two-way ANOVA, * p≤0.05; ** p≤0.01; *** p≤0.001; **** p≤0.0001).
# (§3) The efficacy of Haloperidol was then tested (University of Turin, Boido et al.) in SMA Δ7 mice (purchased from Jackson Laboratory, Maine, USA; stock number 005025). This triple mutant mouse harbors two transgenic alleles and a single targeted mutant. The Tg(SMN2*delta7)4299Ahmb allele consists of a SMN cDNA lacking exon 7 whereas the Tg(SMN2)89Ahmb allele consists of the entire human SMN2 gene. […] At birth, triple mutants are noticeably smaller than normal littermates; by day 5, signs of muscle weakness appear and become progressively more pronounced over the following week as the mice display an abnormal gait, shakiness in the hind limbs and a tendency to fall over. Mean survival is approximately 13 days.
# (§4) Treated SMA mice subcutaneously received 0.5 mg/Kg Haloperidol, dissolved in 2% DMSO in saline solution (HALO group), whereas control mice received an equal amount of saline solution with 2% DMSO (VHL group). Haloperidol or saline solution were daily administered, from P2 (postnatal day 2) to P12 (day of sacrifice).
# During the whole period, the animals underwent a number of behavioral motor tests: tail suspension test, righting reflex, hindlimb suspension test, negative geotaxis (El-Khodor et al. 2008, Boido et al. 2018). Mice were evaluated daily starting from P2 for body weight and behavioral performances: • Tail suspension test (self-clasping): pups were suspended by the tail for 15 s, and their hind-limb posture was scored in a scale from 4 (normal) to 0 (clasping); • Righting reflex: pups were placed on their backs on a flat surface; their success or failure to reposition themselves dorsal side up was assessed over a 30 s period; • Negative geotaxis test: starting from P4, pups we placed on an inclined grid with the mouse head facing down (cut off: max 60 s).
# SMN2 FL transcript = assay: qPCR quantification of SMN2 full length (FL) transcript in SMA fibroblasts; assay type: cell-based, human; parameters: key to SMN2 FL isoform levels: relative expression (2^-ΔΔCt), normalized to reference gene; settings: for SMN2 FL isoform levels: 48 hours, GM03813 fibroblasts, normalized to GAPDH, each of 3 samples
# Description: as §1, §2
# (§5) Extraction of RNA from cells was carried out with ReliaPrep™ RNA Cell Miniprep System (Promega), following the manufacturer's instructions. […] RNA concentration and salt contamination were measured with the NanoDrop spectrophotometer (ThermoFisher). The samples were stored at −80° C. […] of total RNA was retrotranscribed using SuperScript III retrotranscriptase (Invitrogen) following the manufacturer's instructions. Genomic DNA contamination was monitored in the RNA samples without the addition of retrotranscriptase.
# (§6) For the quantification of the SMN2 full length (FL) and SMN2 without exon 7 (Δ7) transcripts, qPCR Probe Mix (Solis Biodyne) was used. The reaction was carried out in a multiplex manner, in which the signal from the SMN2 and GAPDH probe was read in a single reaction. 10 ng of cDNA was used as a standard and the concentration of both probes was 250 nM.
# (§7) Primer sets for detection of SMN2 FL or Δ7 isoforms were used at a final concentration of 500 nM while the concentration of the primer set used for GAPDH was 150 nM. All reactions were carried out using a Step-One Real-Time PCR thermocycler (Applied Biosystems). In all cases, the experiment included 3 biological samples and three technical replicates for each sample. Expression levels were normalized to the reference gene using a 2-^ΔΔCt method. Primers were obtained from Naryshkin, N. A. et al. Science (2014) 345, 688-693.
# (§8) The selected SMA fibroblast line has 3 copies of the SMN2 gene and homozygous deletion of Ex7-Ex8 in SMN1 and therefore only SMN2 gene transcripts were measured. The conditions for cell cultures and extraction protocols are described in Example 1.
# [3] = test system: myoblasts derived from SMA type II patients (KM1150SMAII7PV); assay: Fusion index of immortalized myoblasts derived from SMA type II patients; assay type: cell-based, human; settings: 72 h, healthy myoblasts about 68%, patient myoblasts 50%
# Description: Fusion index of immortalized myoblasts derived from patients with SMA type II. […] Healthy (control; abbreviated as CON) and solvent-treated 25 SMA myoblasts (0.5% DMSO) were used to establish a difference in the differentiation process. Risdiplam at 1 μM was used as a positive control. Nuclei were labeled with 4′,6-diamidino-2-phenylindole (DAPI) and myoblasts were detected using an anti-Desmin antibody. Multinuclear myotubes are marked with white arrows. The fusion index of DMSO-treated healthy and SMA differentiated myoblasts, and compound-treated SMA myoblasts, was calculated. Data were collected after analysis of at least 100 cells and statistics were calculated using Student's t-test (*p<0.05, **p<0.01, ***p<0.001).
# For myoblast immunostaining, 40,000 cells were seeded in a 24-well plate (previously covered with collagen) with 400 μl of KMEM medium and incubated overnight. The following day the medium was changed for the DMEM Glutamax 4.5 g (Gibco) differentiation medium supplemented with 2% horse serum (Sigma); penicillin (100 U/ml) and streptomycin (100 mg/ml) [1% P/S; Gibco], gentamicin (50 μg/ml; Sigma) and insulin (10 μg/ml; Sigma). […] The cells were incubated for 72 h with the compounds and fixed in 4% paraformaldehyde for 10 minutes. All cell cultures were incubated at 37° C. with 5% CO2.
# Nuclei were stained with DAPI. […]
# [4] = test system: SMA motoneurons derived from hiPSCs; assay: Survival rate of hiPSC-derived SMA motoneurons (ISL1-positive cells); assay type: cell-based, human; settings: 10 days of treatment
# Description: (B) SMA MNs survival rate analysis after 10 days of treatment at a range of concentrations. […] Kenpaullone (Ken) at 10 μM was used as as positive control in those experiments.
# For spinal motor neurons (MNs) differentiation from hiPSCs, we used a previously reported protocol [Maury et al., 2015]. HiPSC were incubated in suspension in a neural induction medium containing DMEM/F12 and Neurobasal medium supplemented with B27 (Life Technologies), N2 Supplement (Life Technologies), Pen-Strep 0.1%, β-Mercaptoethanol (β-ME) 0.1% (Life Technologies), Ascorbic Acid (0.5 μM, Sigma-Aldrich), Chir99021 (3 μM, Stemgent), SB431542 (20 μM, Tocris), LDN 193189 (0.2 μM, Stemgent) and Y-27632 (10 μM, Stemcell) at a density of 0.2×10^6 cells/ml in T25 flask or 0.25×10^6 cells/ml in spinner flask. After 2 days, caudalization of the neural progenitors was obtained by addition of retinoic acid (RA 0.1 μM) and smoothened agonist (SAG, 0.5 μM). After 1 week in suspension, brain-derived neurotrophic factor (BDNF, 10 ng/ml), glial-derived neurotrophic factor (GDNF, 10 ng/ml), and N-[N-(3,5-Difluorophenacetyl)-L-alanyl]-S-phenylglycine t-butyl ester (DAPT, 10 nM) were added in the medium without SB431542 and LDN193189. Between day 10 and 14, MN progenitors are converted into MNs. […]
# The survival of MNs was determined by quantifying the number of ISL1-positive cells in each condition.
# delta 7 SMA mice [5] = assay: Muscular fiber morphology of quadriceps in delta 7 SMA mice; assay type: in vivo; settings: P12, 10 days at 0.5 mg/kg, versus sham
# Description: FIG. 9. The effect of haloperidol on muscular fiber morphology in the skeletal muscles of delta 7 mice. Comparison of quadriceps fiber morphology between sham (0.9% saline solution with 2% DMSO) and haloperidol-treated delta 7 SMA mice at P12. The measurements of the muscle fiber area (A), perimeter (B), and maximum and minimum Feret's diameter of muscle fibers (C). At least 100 fibers were analyzed from each animal; the results are shown as the averages obtained from the individual animals.
# We first performed morphological analyses of the H/E-stained quadriceps muscles from mice at postnatal day 12 (P12) after 10 days of treatment with haloperidol at 0.5 mg/kg and compared it to mice treated with sham. Specifically, for the morphological analysis of quadriceps skeletal muscle sections were stained with H/E, as previously described (Valsecchi et al. (2015); Rindt et al. (2015)). To morphologically evaluate mean fiber area, perimeter, minimum and maximum Feret's diameter, more than 100 fibers for each animal were drawn with Neurolucida software (MicroBrightField Inc.) and a computer-assisted microscope (Nikon Eclipse E600 microscope). Data were obtained by the associated data analysis software NeuroExplorer (MicroBrightField): we then averaged the means obtained from single animals. Images of skeletal muscles fibers were acquired with Zeiss Axioscan Z.1 digital slide scanner microscope (Carl Zeiss AG).
# SMN = SMN expression by Western Blot in tissues of SMA Δ7 mice at P12; assay type: in vivo; settings: P12, 0.5 mg/Kg s.c. daily
# Description: FIG. 5. Analysis of SMN expression by Western Blot.
# as §3, §4
# At P12, Halo and VHL animals were sacrificed, and fresh spinal cords and some skeletal muscles (diaphragm, quadriceps, and gastrocnemius) were rapidly dissected. We then verified the effect of Haloperidol on SMN expression on these samples. Tissues were homogenized on ice using a pestle homogenizer in radioimmunoprecipitation assay buffer (RIPA lysis buffer) (Merck Life Sciences) supplemented with 1 mM PMSF, 1 mM DTT, 2 mM sodium orthovanadate (ThermoFisher Scientific) and 1× cOmplete™ Protease Inhibitor Cocktail (Merck Life Sciences). Sample homogenates were incubated on ice for 20 min before being centrifuged for the insoluble material separation at 14,000×g for 20 min at 4° C. Total protein concentration was assayed on supernatants using Bradford reagent (Bio-Rad). Protein denaturation was performed with NuPAGER LDS Sample Buffer supplemented with NuPAGE® Sample Reducing Agent (ThermoFisher Scientific), by heating at 95° C. for 5 min. SDS-PAGE and transfer were performed on 4-20% Mini-PROTEAN® TGX™ Precast Protein Gels and Trans-Blot® Turbo™ mini nitrocellulose membranes using a Trans-Blot® Turbo™ transfer System (Bio-Rad), respectively. Nonspecific binding sites were blocked using 5% nonfat dried milk in PBS-0.2% Tween-20 (Merck Life Sciences) (PBS-T) for 1 h at RT under shaking. […] Immunolabeling was detected with Clarity™ Western ECL Blotting Substrates (Bio-Rad) using the ChemiDoc™ imaging system (Bio-Rad). Densitometric quantitation of bands was performed with Fiji (Image J, NIH).
# SMN2 Δ7 transcript = assay: qPCR quantification of SMN2 without exon 7 (Δ7) transcript in SMA fibroblasts; assay type: cell-based, human; parameters: key: relative expression (2^-ΔΔCt), normalized to reference gene; settings: 48 hours, GM03813 fibroblasts, normalized to GAPDH, each of 3 samples
# Description: as §1, §2, §5, §6, §7, §8
# [6] = 0.5 mg/Kg subcutaneously daily P2 to P12, versus VHL
structure (smiles),measurement,setting,value
O=C(CCCN1CCC(O)(c2ccc(Cl)cc2)CC1)c1ccc(F)cc1 [haloperidol],SMN protein levels,SMN protein; 25 μM,1.132 and 1.751 and 1.745
same,SMN protein levels,SMN protein; 37.5 μM,2.265 and 2.211 and 2.469
same,SMN protein levels,SMN protein; 50 μM,2.413 and 2.453 and 2.614
same,area of myotubes in co-culture,[1],increases the area of myotubes
same,survival rate of SMA MNs in co-culture,[1],increases the survival rate of SMA MNs
same,denervated endplates,delta 7 SMA mice [2],9.50±1.50%
same,body weight,SMA Δ7 mice; [6],significant weight increase
same,negative geotaxis test,SMA Δ7 mice; [6],improved motor performances
same,righting reflex test,SMA Δ7 mice; [6],improved motor performances
same,tail suspension test,SMA Δ7 mice; [6],improved motor performances
same,side effects (behavioral changes or sedation phenotypes),"SMA Δ7 mice; murine SMA model, haloperidol administration",not associated with any conspicuously deleterious or undesirable side effects
same,SMN2 FL isoform levels,SMN2 FL transcript; 10 μM,1.10 and 1.03 and 1.06
same,SMN2 FL isoform levels,SMN2 FL transcript; 25 μM,1.15 and 1.37 and 1.07
same,SMN2 FL isoform levels,SMN2 FL transcript; 37.5 μM,1.32 and 1.47 and 1.51
same,SMN2 FL isoform levels,SMN2 FL transcript; 50 μM,2.54 and 2.11 and 2.33
same,amount of FL SMN2 transcript,SMN2 FL transcript; at the highest concentration,doubled
same,fusion index,[3]; 2.5 μM,66.7%
same,SMA motoneurons survival rate,[4]; 0.32 μM,almost completely rescue
same,SMA motoneurons survival rate compared with positive control,[4]; versus kenpaullone at 10 μM,more efficient than the positive control kenpaullone
same,increase in Max Feret's diameter,delta 7 SMA mice [5],+40%
same,increase in fiber area,delta 7 SMA mice [5],+104%
same,increase in fiber perimeter,delta 7 SMA mice [5],+43%
same,increase in min Feret's diameter,delta 7 SMA mice [5],+49%
same,SMN expression increase compared to VHL,SMN; diaphragm,23%
same,SMN expression increase compared to VHL,SMN; gastrocnemius,102%
same,SMN expression increase compared to VHL,SMN; quadriceps,123%
same,SMN expression increase compared to VHL,SMN; spinal cord,58%
same,SMN2 Δ7 isoform levels,SMN2 Δ7 transcript; 10 μM,0.90 and 0.89
same,SMN2 Δ7 isoform levels,SMN2 Δ7 transcript; 25 μM,1.00 and 1.06 and 1.04
same,SMN2 Δ7 isoform levels,SMN2 Δ7 transcript; 37.5 μM,0.96 and 1.01 and 1.03
same,SMN2 Δ7 isoform levels,SMN2 Δ7 transcript; 50 μM,1.89 and 1.23
Cc1cn2nc(-c3cc(=O)n4cc(N5CCNC6(CC6)C5)ccc4n3)cc(C)c2n1 [risdiplam],fusion index,[3]; 1 μM (positive control),66.7%
